Results taken from US20040127492A1 (Pharmacia Corporation, priority 2002, published 2004).
Where two headings read alike, the source gives them in different places. Blank lines part the entries; values can stand above or below the compound they belong to.

Columns and labels:
MAPKAPK2 (MK-2) = MAPKAPK2 (MK-2) (Homo sapiens, UniProt P49137); test: Determination of MK-2 IC50 (HSP-peptide phosphorylation, anion exchange resin capture assay); format: biochemical
Outline: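 MAPKAPK2, preactivated by p38α with 0.25 mM ATP for 1 h at 30° C, used at 15 nM to phosphorylate HSP-peptide with 0.03 mM ATP plus [γ33P]ATP, pH 7.5, 2% DMSO, 30 min at 30° C. Labelled peptide counted after anion-exchange resin capture; IC50 from six ten-fold dilutions, triplicate.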

MK-3 = MK-3 (Homo sapiens, UniProt Q16644); test: MK-3 inhibition IC50 (similar method to MK-2, with appropriate modifications); format: biochemical
Protocol: In practice, the selectivity of a cyclic pyrazole MK-2 inhibitor varies depending upon the condition under which the test is performed and on the inhibitors being tested. However, for the purposes of this specification, the selectivity of a cyclic pyrazole MK-2 inhibitor inhibitor can be measured as a ratio of the in vitro or in vivo IC50 value for inhibition of MK-3, divided by the IC50 value for inhibition of MK-2 (IC50 MK-3/IC50 MK-2). […] The MK-2 or MK-3 inhibiting activity of any of the compounds described herein can be determined by any one of several methods that are well known to those having skill in the art of enzyme activity testing. […] A similar method, with appropriate modifications, Can be used to measure MK-3 inhibitory activity. In addition, the efficacy of one of the present MK-2 inhibiting compounds in therapeutic applications can be determined by testing for inhibition of TNFα production in cell culture and in animal model assays.

[1] = Table 2, pyrazolylpyrazole MK-2 inhibitors, read-out: MK-2 Avg. IC50
[2] = Table 2, pyrazolylpyrazole MK-2 inhibitors, read-out: MK-3 Avg. IC50
[3] = Table 1, phenoxypyrazole MK-2 inhibitors, read-out: MK-2 Avg, IC50
[4] = Table 1, phenoxypyrazole MK-2 inhibitors, read-out: MK-3 Avg. IC50
[5] = Table 5, other cyclic pyrazole MK-2 inhibiting compounds, read-out: MK-2 Avg. IC50
[6] = Table 5, other cyclic pyrazole MK-2 inhibiting compounds, read-out: MK-3 Avg. IC50

MK-3, sequence (Q16644 whole entry, species assumed): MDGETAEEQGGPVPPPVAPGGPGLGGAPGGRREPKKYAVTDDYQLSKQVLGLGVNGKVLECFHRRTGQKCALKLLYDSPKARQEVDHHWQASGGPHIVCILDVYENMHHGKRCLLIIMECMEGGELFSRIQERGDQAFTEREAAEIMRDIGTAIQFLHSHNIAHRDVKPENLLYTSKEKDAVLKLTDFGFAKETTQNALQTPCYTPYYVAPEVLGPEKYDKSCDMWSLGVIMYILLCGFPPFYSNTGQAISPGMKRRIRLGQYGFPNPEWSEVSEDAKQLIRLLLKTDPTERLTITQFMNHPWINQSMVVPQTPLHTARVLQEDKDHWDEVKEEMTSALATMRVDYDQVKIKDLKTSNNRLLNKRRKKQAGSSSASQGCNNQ
MAPKAPK2 (MK-2), sequence (P49137 whole entry, species assumed): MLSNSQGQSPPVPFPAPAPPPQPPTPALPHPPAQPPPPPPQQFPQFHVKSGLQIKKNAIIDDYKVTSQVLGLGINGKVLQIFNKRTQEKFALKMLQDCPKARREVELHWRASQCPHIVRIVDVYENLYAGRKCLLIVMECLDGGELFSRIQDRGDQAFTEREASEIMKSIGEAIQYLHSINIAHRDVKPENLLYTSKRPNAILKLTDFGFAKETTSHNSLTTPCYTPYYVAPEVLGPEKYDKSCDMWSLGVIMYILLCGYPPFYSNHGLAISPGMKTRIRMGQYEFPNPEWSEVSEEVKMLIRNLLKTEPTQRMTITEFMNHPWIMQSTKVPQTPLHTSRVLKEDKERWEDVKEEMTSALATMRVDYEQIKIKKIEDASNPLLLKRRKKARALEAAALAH

IC50 (MAPKAPK2 (MK-2); read-out: MK-2 Avg. IC50): 0.0313 µM
IC50 (MK-3; read-out: MK-3 Avg. IC50): 5.68 µM
SMILES: O=C1NC(CO)Cn2nc3c(c21)CCc1cnc(-c2cnc4ccccc4c2)cc1-3 (stereo not shown) [Example 9]

IC50 (MAPKAPK2 (MK-2); read-out: MK-2 Avg. IC50): 0.148 µM
IC50 (MK-3; read-out: MK-3 Avg. IC50): 2.51 µM
SMILES: O=C1NCCn2nc3c(c21)CCc1cnc(-c2cccc(O)c2)cc1-3 [Example 27]

IC50 (MAPKAPK2 (MK-2); [1]): 20 µM
IC50 (MK-3; [2]): 137 µM
SMILES: O=C1NCCn2nc3c(c21)CCc1[nH]ncc1-3 [Example 14]

IC50 (MAPKAPK2 (MK-2); [1]): ≥ 200 µM
IC50 (MK-3; [2]): ≥ 200 µM
SMILES: CCOC(=O)c1nn(-c2ccccc2)c2c1CCc1c-2cnn1Cc1ccccc1 [Example 55]

IC50 (MAPKAPK2 (MK-2); [3]): > 200 µM
IC50 (MK-3; [4]): > 200 µM
SMILES: COC(=O)c1c2c(nn1CCCNC(=O)OC(C)(C)C)-c1ccc(OC)cc1CC2 [Example 186]

IC50 (MAPKAPK2 (MK-2); [1]): ≥ 200 µM
IC50 (MK-3; [2]): ≥ 200 µM
SMILES: NC(=O)c1nn(-c2ccccc2)c2c1CCc1c-2cnn1Cc1ccccc1 [Example 53]

IC50 (MAPKAPK2 (MK-2); read-out: MK-2 Avg. IC50): 0.559 µM
IC50 (MK-3; read-out: MK-3 Avg. IC50): 8.85 µM
SMILES: O=C(O)c1c2c(nn1CCCNCCc1ccc(Cl)s1)-c1ccncc1CC2 [Example 57]

IC50 (MAPKAPK2 (MK-2); [3]): 17.2 µM
IC50 (MK-3; [4]): 166 µM
SMILES: NCCCn1nc2c(c1C(=O)O)CCc1cc(O)c(-c3cccc(N)c3)cc1-2 [Example 19]

IC50 (MAPKAPK2 (MK-2); [1]): ≥ 200 µM
IC50 (MK-3; [2]): ≥ 200 µM
SMILES: CCOC(=O)c1[nH]nc2c1CCc1c-2cnn1C [Example 50]

IC50 (MAPKAPK2 (MK-2); read-out: MK-2 Avg. IC50): 0.288 µM
IC50 (MK-3; read-out: MK-3 Avg. IC50): 15.8 µM
SMILES: COc1ccc(-c2cc3c(cn2)CCc2c-3nn3c2C(=O)NCCC3)cc1OC [Example 43]

IC50 (MAPKAPK2 (MK-2); [3]): 28.3 µM
IC50 (MK-3; [4]): > 200 µM
SMILES: O=C(O)c1[nH]nc2c1CCc1cc(O)c(O)cc1-2 [Example 28]

IC50 (MAPKAPK2 (MK-2); [3]): 92.7 µM
IC50 (MK-3; [4]): > 200 µM
SMILES: COc1cc2c(cc1-c1ccc(F)c(F)c1)-c1nn(CCCNC(=O)OC(C)(C)C)c(C(=O)O)c1CC2 [Example 46]

IC50 (MAPKAPK2 (MK-2); read-out: MK-2 Avg. IC50): 35.6 µM
IC50 (MK-3; read-out: MK-3 Avg. IC50): 3.3 µM
SMILES: O=C1NCCn2nc3c(c21)CCc1cnc(N2CCSCC2)cc1-3 [Example 203]

IC50 (MAPKAPK2 (MK-2); [1]): ≥ 200 µM
IC50 (MK-3; [2]): ≥ 200 µM
SMILES: O=C(O)c1nn(-c2ccccc2)c2c1CCc1[nH]ncc1-2 [Example 71]

IC50 (MAPKAPK2 (MK-2); [5]): 0.0211 µM
IC50 (MK-3; [6]): 3.62 µM
SMILES: O=C1NCCn2nc3c(c21)CCc1cnc(/C=C/c2cccc(O)c2)cc1-3 [Example 1]

IC50 (MAPKAPK2 (MK-2); [3]): 63.8 µM
IC50 (MK-3; [4]): > 200 µM
SMILES: COc1cc2c(cc1-c1cccc(C(F)(F)F)c1)-c1nn(CCCNC(=O)OC(C)(C)C)c(C(=O)O)c1CC2 [Example 41]

IC50 (MAPKAPK2 (MK-2); [5]): 0.749 µM
IC50 (MK-3; [6]): > 20 µM
SMILES: O=C1NCCn2nc3c(c21)CCc1cnc(/C=C/c2ccc(F)cc2)cc1-3 [Example 8]

IC50 (MAPKAPK2 (MK-2); [3]): 2.29 µM
IC50 (MK-3; [4]): 38.2 µM
SMILES: NCCCn1nc2c(c1C(=O)O)CCc1cc(O)c(CCc3ccc(Cl)cc3)cc1-2 [Example 6]

IC50 (MAPKAPK2 (MK-2); Table 4, pyrimidylpyrazole MK-2 inhibitors, read-out: MK-2 Avg. IC50): 0.0761 µM
IC50 (MK-3; Table 4, pyrimidylpyrazole MK-2 inhibitors, read-out: NK-3 Avg. IC50): 1.93 µM
SMILES: NCCCn1nc2c(c1C(=O)O)CCc1cnc(-c3cnc4ccccc4c3)nc1-2 [Example 1]

IC50 (MAPKAPK2 (MK-2); [3]): 59.6 µM
IC50 (MK-3; [4]): > 200 µM
SMILES: COc1cc2c(cc1CCc1ccc(Cl)cc1)-c1nn(CCCNC(=O)OC(C)(C)C)c(C(=O)O)c1CC2 [Example 40]

IC50 (MAPKAPK2 (MK-2); [5]): 0.536 µM
IC50 (MK-3; [6]): > 20 µM
SMILES: O=C1NCCn2nc3c(c21)CCc1cnc(/C=C/c2ccc(Cl)cc2)cc1-3 [Example 6]

IC50 (MAPKAPK2 (MK-2); [1]): 103 µM
IC50 (MK-3; [2]): ≥ 200 µM
SMILES: O=C(O)c1c2c(nn1CCCO)-c1cn[nH]c1CC2 [Example 27]

IC50 (MAPKAPK2 (MK-2); [1]): 23.8 µM
IC50 (MK-3; [2]): 56 µM
SMILES: O=C1NCCCn2nc3c(c21)CCc1[nH]nc(SCc2ccccc2)c1-3 [Example 16]

IC50 (MAPKAPK2 (MK-2); read-out: MK-2 Avg. IC50): 0.325 µM
IC50 (MK-3; read-out: MK-3 Avg. IC50): 10.7 µM
SMILES: O=C(O)c1c2c(nn1CCCNCCc1ccc(Br)cc1)-c1ccncc1CC2 [Example 46]

IC50 (MAPKAPK2 (MK-2); [3]): > 200 µM
IC50 (MK-3; [4]): > 200 µM
SMILES: COC(=O)c1c2c(nn1CCNC(=O)OC(C)(C)C)-c1cc(Br)c(OC)cc1CC2 [Example 185]

IC50 (MAPKAPK2 (MK-2); [1]): ≥ 200 µM
IC50 (MK-3; [2]): ≥ 200 µM
SMILES: CCOC(=O)c1[nH]nc2c1CCc1c-2cnn1-c1ccccc1 [Example 47]

IC50 (MAPKAPK2 (MK-2); [1]): ≥ 200 µM
IC50 (MK-3; [2]): ≥ 200 µM
SMILES: CCOC(=O)Cn1nc2c(c1C(=O)OCC)CCc1[nH]ncc1-2 [Example 113]

IC50 (MAPKAPK2 (MK-2); read-out: MK-2 Avg. IC50): 0.028 µM
IC50 (MK-3; read-out: MK-3 Avg. IC50): 0.135 µM
SMILES: NCCCn1nc2c(c1C(=O)O)CCc1cnc(-c3cc(F)cc(F)c3)cc1-2 [Example 6]

IC50 (MAPKAPK2 (MK-2); [3]): > 200 µM
IC50 (MK-3; [4]): > 200 µM
SMILES: CCOC(=O)c1nn(-c2ccc(S(N)(=O)=O)cc2)c2c1CCc1cc(O)ccc1-2 [Example 176]

IC50 (MAPKAPK2 (MK-2); [5]): 3.61 µM
IC50 (MK-3; [6]): > 20 µM
SMILES: CCOC(=O)c1c2c(nn1CCCN)-c1cc(/C=C/c3ccccc3)ncc1CC2 [Example 38]

IC50 (MAPKAPK2 (MK-2); read-out: MK-2 Avg. IC50): 0.112 µM
IC50 (MK-3; read-out: MK-3 Avg. IC50): 0.426 µM
SMILES: CC(C)(C)c1ccc(-c2cc3c(cn2)CCc2c-3nn(CCCN)c2C(=O)O)cc1 [Example 22]

IC50 (MAPKAPK2 (MK-2); [1]): ≥ 200 µM
IC50 (MK-3; [2]): ≥ 200 µM
SMILES: CCOC(=O)c1nn(CC(F)(F)F)c2c1CCc1c-2cnn1C(c1ccccc1)(c1ccccc1)c1ccccc1 [Example 73]
